{
  "source": "patent US10294202B2",
  "about": "“Pyrrolidinones as herbicides” (FMC Corporation, priority 2013, dated 2019)",
  "key": {"corn (ZEAMD)": {"test_system": "corn (ZEAMD)", "test": "Test H preemergence mixture test (Colby)", "type": "in vivo, Zea mays", "conditions": "applied alone, 21 d, mean of three replicates, scale 0-100", "source_text": "(§1) Colby's Equation was used to determine the herbicidal effects expected from the mixtures. Colby's Equation (Colby, S. R. “Calculating Synergistic and Antagonistic Responses of Herbicide Combinations,” Weeds, 15(1), pp 20-22 (1967)) calculates the expected additive effect of herbicidal mixtures and for two active ingredients is of the form: Pa+b=Pa+Pb−(PaPb/100)\n(§2) where • Pa+b is the percentage effect of the mixture expected from additive contribution of the individual components: • Pa is the observed percentage effect of the first active ingredient at the same use rate as in the mixture, and • Pb is the observed percentage effect of the second active ingredient at the same use rate as in the mixture. In the following Tables, rates are shown in grams of active ingredient per hectare (g a.i./ha); “Obsd.” is the observed effect. “Exp.” is the expected effect calculated from Colby's Equation.\n(§3) This test evaluated the effect of mixtures of compound 80 with several commercial herbicides on four plant species. Seeds of plant species selected from corn (ZEAMD, Zea mays), soybean (GLXMA, Glycine max), waterhemp (common waterhemp, AMATA, Amaranthus rudis), and giant foxtail (SETFA, Setaria faberii) were planted into a silt loam soil and treated preemergence with test chemicals formulated in a non-phytotoxic solvent mixture which included a surfactant and applied using a volume of 281 L/ha. Each treatment was replicated three times. Treated plants and controls were maintained in a greenhouse using supplemental lighting to maintain a photoperiod of about 16 h; daytime and nighttime temperatures were about 24-30° C. and 19-21° C., respectively. Nutrients were applied using a balanced fertilizer applied through the watering system. At 21 d after treatment, all species were compared to controls and visually evaluated. Plant response ratings were calculated as the means of the three replicates, are summarized in Tables H1 through H5, and are based on a scale of 0 to 100 where 0 is no effect and 100 is complete control. A dash (-) response means no test result. The Expected (Exp.) results were calculated using Colby's Equation as described for Test G above."}, "soybean (GLXMA)": {"test_system": "soybean (GLXMA)", "test": "Test H preemergence mixture test (Colby)", "type": "in vivo, Glycine max", "conditions": "applied alone, 21 d, mean of three replicates, scale 0-100", "source_text": "as §1, §2, §3"}, "waterhemp (AMATA)": {"test_system": "waterhemp (AMATA)", "test": "Test H preemergence mixture test (Colby)", "type": "in vivo, Amaranthus rudis", "conditions": "applied alone, 21 d, mean of three replicates, scale 0-100", "source_text": "as §1, §2, §3"}, "giant foxtail (SETFA)": {"test_system": "giant foxtail (SETFA)", "test": "Test H preemergence mixture test (Colby)", "type": "in vivo, Setaria faberii", "conditions": "applied alone, 21 d, mean of three replicates, scale 0-100", "source_text": "as §1, §2, §3"}, "[1]": {"test_system": "small-flower umbrella sedge (CYPDI)", "test": "Test G paddy mixture test (Colby)", "type": "in vivo, Cyperus difformis", "conditions": "applied alone, 20 g a.i./ha; 14 d; scale 0-100", "procedure": "(§4) Seeds of small-flower umbrella […], Cyperus difformis) and […], Heteranthera limosa) were sown on the soil surface in two separate quadrants of 11-cm (4-inch) tubs filled with steam pasteurized Tama soil. Simultaneously, plantings of […], Echinochloa crus-galli) and transplanted japonica rice (ORYSA, Oryza sativa) were established in separate “plug” flats. […] Herbicide application timing was targeted at the 2.0 to 2.5 leaf stage and the plants were treated with test chemicals formulated in a non-phytotoxic solvent. Treated plants and controls were maintained in a greenhouse for 14 d, after which time all species were compared to controls and visually evaluated. Plant response ratings are summarized in Tables G1 through G12, and are based on a scale of 0 to 100 where 0 is no effect and 100 is complete control. A dash (-) response means no test result. Colby's Equation was used to determine the herbicidal effects expected from the mixtures. […] “Exp.” is the expected effect calculated from Colby's Equation."}, "ducksalad (HETLI)": {"test_system": "ducksalad (HETLI)", "test": "Test G paddy mixture test (Colby)", "type": "in vivo, Heteranthera limosa", "conditions": "applied alone, 20 g a.i./ha; 14 d; scale 0-100", "procedure": "as §4"}, "barnyardgrass (ECHCG)": {"test_system": "barnyardgrass (ECHCG)", "test": "Test G paddy mixture test (Colby)", "type": "in vivo, Echinochloa crus-galli", "conditions": "applied alone, 20 g a.i./ha; 14 d; scale 0-100", "procedure": "as §4"}},
  "note": "Several values for one entry are separate records, joined by “and”; a condition that tells them apart may be missing. Identical values can stand only once.",
  "data": [
    {"smiles": "CCNc1nc(Cl)nc(NC(C)C)n1", "note": "[Atrazine]", "values": [
      {"measurement": "ZEAMD Obsd.", "setting": "corn (ZEAMD); 62 g a.i./ha", "result": 0},
      {"measurement": "ZEAMD Obsd.", "setting": "corn (ZEAMD); 125 g a.i./ha", "result": 0},
      {"measurement": "GLXMA Obsd.", "setting": "soybean (GLXMA); 62 g a.i./ha", "result": 13},
      {"measurement": "GLXMA Obsd.", "setting": "soybean (GLXMA); 125 g a.i./ha", "result": 48},
      {"measurement": "AMATA Obsd.", "setting": "waterhemp (AMATA); 62 g a.i./ha", "result": 33},
      {"measurement": "AMATA Obsd.", "setting": "waterhemp (AMATA); 125 g a.i./ha", "result": 90},
      {"measurement": "SETFA Obsd.", "setting": "giant foxtail (SETFA); 62 g a.i./ha", "result": 0},
      {"measurement": "SETFA Obsd.", "setting": "giant foxtail (SETFA); 125 g a.i./ha", "result": 8}
    ]},
    {"smiles": "COC(=O)c1ccccc1CS(=O)(=O)NC(=O)Nc1nc(OC)cc(OC)n1", "note": "[Bensulfuron-methyl]", "values": [
      {"measurement": "CYPDI Obsd.", "setting": "[1]", "result": "100 and 98"},
      {"measurement": "HETLI Obsd.", "setting": "ducksalad (HETLI)", "result": 100},
      {"measurement": "ECHCG Obsd.", "setting": "barnyardgrass (ECHCG)", "result": 65}
    ]},
    {"smiles": "CCOC(=O)c1ccccc1S(=O)(=O)NC(=O)Nc1nc(Cl)cc(OC)n1", "note": "[Chlorimuron-ethyl]", "values": [
      {"measurement": "ZEAMD Obsd.", "setting": "corn (ZEAMD); 1 g a.i./ha", "result": 22},
      {"measurement": "ZEAMD Obsd.", "setting": "corn (ZEAMD); 31 g a.i./ha", "result": 73},
      {"measurement": "GLXMA Obsd.", "setting": "soybean (GLXMA); 1 g a.i./ha", "result": 0},
      {"measurement": "GLXMA Obsd.", "setting": "soybean (GLXMA); 31 g a.i./ha", "result": 22},
      {"measurement": "AMATA Obsd.", "setting": "waterhemp (AMATA); 1 g a.i./ha", "result": 47},
      {"measurement": "AMATA Obsd.", "setting": "waterhemp (AMATA); 31 g a.i./ha", "result": 89},
      {"measurement": "SETFA Obsd.", "setting": "giant foxtail (SETFA); 1 g a.i./ha", "result": 0},
      {"measurement": "SETFA Obsd.", "setting": "giant foxtail (SETFA); 31 g a.i./ha", "result": 47}
    ]}
  ]
}
